{"source": "patent US12648979B2", "about": "“Compositions comprising sulforaphane or a sulforaphane precursor and Moringa plant components” (Nutramax Laboratories, Inc., priority 2021, dated 2026)", "key": {"[1]": {"tested_on": "Epstein-Barr virus-early antigen", "conditions": "in vitro; cited from earlier work"}, "heme oxygenase-1 (HO-1)": {"tested_on": "heme oxygenase-1 (HO-1)", "conditions": "oral administration; cited from earlier work"}, "[2]": {"tested_on": "NAD(P)H:quinone oxidoreductase (NQO1)", "conditions": "oral administration; cited from earlier work"}, "mammary tumors": {"tested_on": "mammary tumors", "conditions": "rat, in vivo; cited from earlier work"}, "[3]": {"tested_on": "NAD(P)H:quinone oxidoreductase 1 (NQO1) gene expression", "assay": "NQO1 gene expression in RAW 264.7 macrophage cell line, quantitative RT-PCR (Examples 6, 7, 11)", "type": "cell-based", "conditions": "0.5 μM SFN; 24 hours", "experimental": "In the study, the macrophage cell line RAW 264.7 was treated with dimethyl sulfoxide (DMSO) (vehicle control), sulforaphane (SFN), a maitake mushroom extract having about 20% beta-glucan content (Maitake), or the combination of sulforaphane and the maitake mushroom extract, for 24 hours. In particular, the cells were treated with one of the following: (i) DMSO (vehicle control), (ii) 0.5 μM SFN, (iii) 250 μg/mL Maitake, (iv) 500 μg/mL Maitake, (v) 750 μg/mL Maitake, (vi) 0.5 μM SFN and 250 μg/mL Maitake, (vii) 0.5 μM SFN and 500 μg/mL Maitake, and (viii) 0.5 μM SFN and 750 μg/mL Maitake. The gene expression of NQO-1 was analyzed via quantitative RT-PCR. The results, which are depicted in FIG. 2, show the following:\nIn the study, the macrophage cell line RAW 264.7 was treated with DMSO (vehicle control), sulforaphane (SFN), a shiitake mushroom extract having at least 20% alpha-glucan content (Shiitake), or the combination of sulforaphane and the shiitake mushroom extract, for 24 hours. […] The gene expression of NQO1 was analyzed via quantitative RT-PCR. […]\nIn the study, the macrophage cell line RAW 264.7 was treated with sulforaphane (SFN), Moringa plant components (MOR), or a combination of SFN and MOR, for 24 hours. […] The gene expression of NQO1 was analyzed via quantitative RT-PCR. […]"}, "[4]": {"tested_on": "broccoli sprout-derived myrosinase", "assay": "Consumption of glucoraphanin by myrosinase as a function of ascorbic acid concentration (Example 3)", "type": "biochemical", "conditions": "600 μmoles/Liter ascorbic acid", "experimental": "A […] Interaction Chromatographic (HILIC) method was developed, comprising the following conditions: • Column: Waters BEH Amide, 1.7-μm particle size; 2.1 mm×100 mm; • Mobile Phase: 20% 10 mM Ammonium Acetate, pH 5.0; 80% acetonitrile; • Separation mode: isocratic; • Column Temperature: 70° C.; • Flow Rate: 0.7 mL/min.\nAbout 250 mg of broccoli seed extract containing about 12% (w/w) glucoraphanin were subjected to hydrolysis by a fixed concentration of broccoli sprout-derived myrosinase in the presence of variable concentration of ascorbic acid, ranging from 0 to 600 μmoles/Liter. The reaction mixtures were thermostated at 38° C.; aliquots were withdrawn every 15 minutes for 60 minutes, and concentration of glucoraphanin determined chromatographically. The rate of glucoraphanin consumption was interpreted as the rate its conversion to sulforaphane. Graphical representation of glucoraphanin content reduction as a function of increasing ascorbic acid concentration results in a series of linear plots; the slopes of the linear regression lines reflect the rate of glucoraphanin consumption, in pmoles/minute. It is apparent that in the presence of 600 μmoles/Liter concentration of ascorbic acid, the reaction rate increased 13-fold relative to that which proceeded in the absence of modulatory effects of ascorbic acid."}, "myrosinase [5]": {"tested_on": "myrosinase", "assay": "Equimolar conversion of glucoraphanin to sulforaphane by myrosinase, HPLC (Example 4)", "type": "biochemical, broccoli", "conditions": "PART 2, broccoli seed extract 250 mg", "experimental": "A two-part experiment was conducted to further elucidate the role of ascorbic acid in modulating myrosinase activity. All solutions were prepared in 20 mM Tris-buffered saline, at pH 7.5, previously identified as an optimal for myrosinase activity; each sample tube had 100 mg of freeze-dried broccoli powder accurately weighed in as a source of myrosinase. Experiment was conducted at 38° C. for 2 hours, with sample aliquots removed in 30-minute increments, and both glucoraphanin and sulforaphane content assessed by HPLC. […] A control sample contained no ascorbic acid, and the enzymatic conversion proceeded unassisted by a co-factor. PART 1. In the presence of the fixed concentration of ascorbic acid, 1 mmol/Liter, an increasing amount of broccoli seed extract (about 12% glucoraphanin, w/w) was added, ranging from 250 mg to 500 mg. PART 2. While keeping the amount of broccoli seed extract fixed at 250 mg, the concentration of ascorbic acid was varied from 0.4 mmol/Liter to 3.8 mmol/Liter."}, "myrosinase [6]": {"tested_on": "myrosinase", "assay": "Conversion of glucoraphanin to sulforaphane in Simulated Intestinal Fluid (Example 5)", "type": "biochemical, broccoli", "conditions": "38° C., ascorbic acid 0.25 to 1.00 mmol/Liter, FIG. 1", "experimental": "Simulated Intestinal Fluid (SIF) powder, a commercially supplied concentrate closely approximating the human intestinal content in terms of composition, pH and ionic strength, was used. The experiment utilized a USP Dissolution Apparatus 2 (paddles), where into six dissolution vessels 500 mL of Simulated Intestinal Fluid was dispensed, along with 150 mg of freeze-dried broccoli sprout powder as a source of myrosinase. […] Aliquots were withdrawn every 15 minutes, and assayed for sulforaphane."}}}
{"compound": "CCCCCCCCC=CCCCCCCCC(=O)OCC1OC(OC2CCC3(C)C(=CCC4C3CCC3(C)C(C(C)CCC(CC)C(C)C)CCC43)C2)C(O)C(O)C1O", "note": "[3-O-(6′-O-oleoyl-β-D-glucopyranosyl)-β-sitosterol]", "values": [{"measurement": "inhibitory effects on Epstein-Barr virus-early antigen", "setting": "[1]", "value": "significant inhibitory effects"}]}
{"compound": "C[C@@H]1O[C@@H](Oc2ccc(CN=C=S)cc2)[C@H](O)[C@H](O)[C@H]1O", "note": "[4(α-L-rhamnosyloxy)-benzyl isothiocyanate]", "values": [{"measurement": "inhibitory effects on Epstein-Barr virus-early antigen", "setting": "[1]", "value": "significant inhibitory effects"}]}
{"compound": "CCOC(=O)NCc1ccc(O[C@@H]2O[C@@H](C)[C@H](O)[C@@H](O)[C@H]2O)cc1", "note": "[O-Ethyl-4-(α-L-rhamnosyloxy)benzyl carbamate]", "values": [{"measurement": "inhibitory effects on Epstein-Barr virus-early antigen", "setting": "[1]", "value": "significant inhibitory effects"}]}
{"compound": "C[S+]([O-])CCCCN=C=S", "note": "(centres unmarked) [SFN, 1-isothiocyanato-4-methylsulfinylbutane]", "values": [{"measurement": "elevated immunostaining of HO-1 in the mammary epithelium", "setting": "heme oxygenase-1 (HO-1)", "value": 4, "unit": "fold"}, {"measurement": "increase in NQO1 enzymatic activity in the mammary epithelium", "setting": "[2]", "value": 3, "unit": "fold"}, {"measurement": "blocking the formation of mammary tumors", "setting": "mammary tumors", "value": "effective in blocking the formation of mammary tumors"}, {"measurement": "Fold increase in NQO-1 gene expression", "setting": "[3]", "value": 12.96}]}
{"compound": "O=C1O[C@H]([C@@H](O)CO)C(O)=C1O", "note": "[ascorbic acid]", "values": [{"measurement": "increase of reaction rate relative to absence of ascorbic acid", "setting": "[4]", "value": 13, "unit": "fold"}, {"measurement": "ascorbic acid concentration up to which myrosinase-promoted conversion increases linearly, then levels off", "setting": "myrosinase [5]", "value": "about 2 mmol/L"}, {"measurement": "yield of sulforaphane versus ascorbic acid concentration", "setting": "myrosinase [6]", "value": "direct correlation between larger yield of sulforaphane and higher concentrations of ascorbic acid"}]}
{"compound": "CCOC(=S)NCc1ccc(OC2OC(C)C(O)C(O)C2O)cc1", "note": "(centres unmarked) [niazimicin]", "values": [{"measurement": "inhibitory effects on Epstein-Barr virus-early antigen", "setting": "[1]", "value": "significant inhibitory effects"}]}
